Laboratory results reported in patent US20110233146A1, “S[…] CONTROL COMPOSITION, SYSTEMS, AND RELATED METHODS THEREFOR” (Siemens Water Technologies Corp., priority 2009, published 2011).

Assays:
[1] = system: atmospheric hydrogen sulfide; assay: Example 2: slug dose of anthraquinone alone, all other chemical feed off at LS482, atmospheric hydrogen sulfide by OdaLog monitor/loggers
Description: In order to gather the required information, the two OdaLog® hydrogen sulfide monitor/loggers were deployed in the manhole just prior to lift station LS481 prior to 10:00 a.m. on day one. At 10:00 a.m. on day one all chemical feed was turned off at lift station LS482. At 10:00 a.m. on day two a ten gallon slug of anthraquinone (AQUIT) was added to the flow through the manhole at lift station LS482. At 10:00 a.m. on day three, regular chemical feed was resumed at lift station LS482. The OdaLog® monitor/loggers were retrieved on day six and downloaded to retrieve the atmospheric hydrogen sulfide concentrations before, during, and following the trial.
Data was collected over a period of several days to include a full day prior to the test and a full day after the test as summarized in the graph of FIG. 7.
The average atmospheric hydrogen sulfide concentration for the 24 hour period with no chemical additive was about 1,032 ppmv. During the following 24 hour period during which the effect of the slug dose of anthraquinone, the atmospheric hydrogen sulfide concentration averaged about 999 ppmv; the hydrogen sulfide concentration was thus reduced by about 3.2 percent.

[2] = system: atmospheric hydrogen sulfide; assay: Sewerage system field trial (Example 1): atmospheric hydrogen sulfide logged at lift stations LS481 and LS480
Description: The collection system consisted of four serial master lift stations LS 479, LS482, LS 481, and LS 480 feeding wastewater to a central treatment plant WWTP as depicted in FIG. 2.
Calcium hydroxide (with or without anthraquinone) feed rate was dependent mainly on the wastewater flow rate.
Data collected included atmospheric hydrogen sulfide collected every five minutes with monitor/loggers within the monitoring manhole at lift station LS481 and inside the lift station LS480, and dissolved sulfide grab samples at each as well as treatment plant WWTP. Nitrate residual and pH data were also collected. […] The chemical feed line was disposed to feed into the manhole about 50 feet upstream of lift station LS482.
Over the next few weeks the controller pH set point was adjusted until the desired atmospheric pH was attained downstream at lift station LS481.
Two batches of a formulation of calcium hydroxide supplemented with anthraquinone were fed to determine the effectiveness of the combination for controlling odor.
The primary monitoring point for atmospheric hydrogen sulfide was at lift station LS481. The primary monitoring point for dissolved sulfide was the plant influent. During the period from June 23 to July 14 background data was gathered (FIG. 4) to reflect the system operating on nitrate salt feed at all four lift stations.
The data was tabulated for every day on which no calcium hydroxide was fed and that nitrate salt was fed at all four lift stations.

[3] = 10/14 to 10/17, after 10 gal anthraquinone slug on 10/13 at LS482, with calcium hydroxide slurry 258 GPD, nitrate salt solution 197 GPD

In the case of `O=C1c2ccccc2C(=O)c2ccccc21` [Anthraquinone, anthraquinone], the “average atmospheric hydrogen sulfide concentration” value ([1]; 24 hour period under the effect of a ten gallon slug of anthraquinone alone, preceding 24 hours with no chemical additive about 1,032 ppmv) is reported as “about 999 ppmv”, the “hydrogen sulfide concentration reduced by” value ([1]; ten gallon slug of anthraquinone alone versus preceding 24 hours with no chemical additive) is reported as “about 3.2%” and the “LS480 Avg Atm H2S” value [2, 3] is reported as 305 ppmv. The “LS481 Avg Atm H2S” value [2, 3] was 100 ppmv, the “decrease in atmospheric hydrogen sulfide concentration at the downstream monitoring point” value ([2]; anthraquinone added to the alkaline material used for pH adjustment, versus alkaline material without it) was 21% and the “atmospheric hydrogen sulfide downstream dropped” value ([2]; anthraquinone added with calcium hydroxide to the sewer upstream of the sampling point (see Table 8)) was 37.5%. For the same compound, the “reduction in the hydrogen sulfide concentration at the downstream monitoring point lift station LS481” value ([2]; one time slug of anthraquinone along with the calcium hydroxide feed, over the next four days) was “about 38%”.
